Measurements reported in patent US8735414B2 (priority 2009, dated 2014).

Assays:
[1] = test system: bicistronic HCV replicon (replicon RNA, GenBank Accession No. AJ242654); assay: HCV Replicon Assay; type: cell-based; details: Hepatitis C virus, 72 h, read-out: Replicon IC50

SMILES	melting point [°C]	IC50 [1] [nM]
Cc1ccc2c(C#N)c(-c3ncc(S(=O)(=O)NC(CF)CF)cn3)n(CC3CC3)c2c1 [compound 133, 2-[3-cyano-1-(cyclopropylmethyl)-6-methyl-1H-indol-2-yl]-N-(1,3-difluoropropan-2-yl)pyrimidine-5-sulfonamide]	261 to 262	< 500
Cc1cc2c(cc1F)c(C#N)c(-c1ccc(S(=O)(=O)NC3(C)CC3)cn1)n2C1CCCC1 [compound 645, 6-(3-cyano-1-cyclopentyl-5-fluoro-6-methyl-1H-indol-2-yl)-N-(1-methylcyclopropyl)pyridine-3-sulfonamide]	208 to 209	< 500
N#Cc1c(-c2ccc(S(=O)(=O)NC(CF)CF)cn2)n(C2CCCC2)c2cc(F)ccc12 [compound 307, 6-(3-cyano-1-cyclopentyl-6-fluoro-1H-indol-2-yl)-N-(1,3-difluoropropan-2-yl)pyridine-3-sulfonamide]	166 to 168	< 500
CCOc1cc2c(cc1F)c(C#N)c(-c1ccc(S(=O)(=O)N[C@@H](C)C(F)(F)F)cn1)n2C1CCC1 [compound 726, 6-(3-cyano-1-cyclobutyl-6-ethoxy-5-fluoro-1H-indol-2-yl)-N-[(2S)-1,1,1-trifluoropropan-2-yl]pyridine-3-sulfonamide]	193 to 196	< 500
CC(C)(C)NS(=O)(=O)c1ccc(-c2c(C#N)c3ccc(OC(F)F)cc3n2-c2ccccc2)nc1 [compound 624, N-tert-butyl-6-[3-cyano-6-(difluoromethoxy)-1-phenyl-1H-indol-2-yl]pyridine-3-sulfonamide]	216 to 218	< 500
CCc1cc2c(cc1F)c(C#N)c(-c1ccc(S(=O)(=O)NCC3CCC3)cn1)n2-c1ncccn1 [compound 953, 6-[3-cyano-6-ethyl-5-fluoro-1-(pyrimidin-2-yl)-1H-indol-2-yl]-N-(cyclobutylmethyl)pyridine-3-sulfonamide]	207 to 214	< 500
C[C@H](NS(=O)(=O)c1cnc(-c2c(C#N)c3cc(F)ccc3n2C2CCCC2)nc1)C1CC1 [compound 530, 2-(3-cyano-1-cyclopentyl-5-fluoro-1H-indol-2-yl)-N-[(1S)-1-cyclopropylethyl]pyrimidine-5-sulfonamide]	184 to 186	< 500
C[C@H](NS(=O)(=O)c1ccc(-c2c(C#N)c3ccc(F)cc3n2C2CCCCC2)nc1)C1CC1 [compound 262, 6-(3-cyano-1-cyclohexyl-6-fluoro-1H-indol-2-yl)-N-[(1S)-1-cyclopropylethyl]pyridine-3-sulfonamide]	161 to 162	< 500
CCc1ccc2c(c1)c(C#N)c(-c1ccc(S(=O)(=O)NC(CF)CF)cn1)n2C1CCCC1 [compound 381, 6-(3-cyano-1-cyclopentyl-5-ethyl-1H-indol-2-yl)-N-(1,3-difluoropropan-2-yl)pyridine-3-sulfonamide]	167 to 168	< 500
N#Cc1c(-c2ncc(S(=O)(=O)NC(CF)CF)cn2)n(C2CCC2)c2ccc(CF)cc12 [compound 377, 2-[3-cyano-1-cyclobutyl-5-(fluoromethyl)-1H-indol-2-yl]-N-(1,3-difluoropropan-2-yl)pyrimidine-5-sulfonamide]	131 to 134	< 500
C[C@H](NS(=O)(=O)c1cnc(-c2c(C#N)c3cc(C(F)F)ccc3n2C2CCC2)nc1)C(F)(F)F [compound 380, 2-[3-cyano-1-cyclobutyl-5-(difluoromethyl)-1H-indol-2-yl]-N-[(2S)-1,1,1-trifluoropropan-2-yl]pyrimidine-5-sulfonamide]	186 to 188	< 500
CCc1cc2c(cc1F)c(C(N)=O)c(-c1ccc(S(=O)(=O)N[C@@H](C)C(F)(F)F)cn1)n2-c1ncc(C)cn1 [compound 1047, 6-ethyl-5-fluoro-1-(5-methylpyrimidin-2-yl)-2-(5-{[(2S)-1,1,1-trifluoropropan-2-yl]sulfamoyl}pyridin-2-yl)-1H-indole-3-carboxamide]	257 to 261	500 to 2000
N#Cc1c(-c2ncc(S(=O)(=O)NC(CF)CF)cn2)n(C2CCCC2)c2cc(F)ccc12 [compound 166, 2-(3-cyano-1-cyclopentyl-6-fluoro-1H-indol-2-yl)-N-(1,3-difluoropropan-2-yl)pyrimidine-5-sulfonamide]	167 to 169	< 500
CCc1cc2c(cc1F)c(C#N)c(-c1ccc(S(=O)(=O)N[C@@H](C)C(F)(F)F)cn1)n2-c1ccc(F)cn1 [compound 777, 6-[3-cyano-6-ethyl-5-fluoro-1-(5-fluoropyridin-2-yl)-1H-indol-2-yl]-N-[(2S)-1,1,1-trifluoropropan-2-yl]pyridine-3-sulfonamide]	210 to 212	< 500
N#Cc1c(-c2ncc(S(=O)(=O)NC(CF)CF)cn2)n(C2CCC2)c2cc(OC(F)(F)F)ccc12 [compound 177, 2-[3-cyano-1-cyclobutyl-6-(trifluoromethoxy)-1H-indol-2-yl]-N-(1,3-difluoropropan-2-yl)pyrimidine-5-sulfonamide]	202 to 204	< 500
Cc1cc2c(cc1O)c(C#N)c(-c1ccc(S(=O)(=O)NC(C)(C)C)cn1)n2C1CCC1 [compound 805, N-tert-butyl-6-(3-cyano-1-cyclobutyl-5-hydroxy-6-methyl-1H-indol-2-yl)pyridine-3-sulfonamide]	211 to 213	500 to 2000
Cc1cc2c(cc1F)c(C#N)c(-c1ccc(S(=O)(=O)NC(C)(C)C)cn1)n2C1CCC1 [compound 651, N-tert-butyl-6-(3-cyano-1-cyclobutyl-5-fluoro-6-methyl-1H-indol-2-yl)pyridine-3-sulfonamide]	223 to 228	< 500
N#Cc1c(-c2ccc(S(=O)(=O)NC(CF)CF)cn2)n(CC2CC2)c2cc(OC(F)(F)F)ccc12 [compound 68, 6-[3-cyano-1-(cyclopropylmethyl)-6-(trifluoromethoxy)-1H-indol-2-yl]-N-(1,3-difluoropropan-2-yl)pyridine-3-sulfonamide]	132 to 133	< 500
CCc1cc2c(cc1F)c(C#N)c(-c1ccc(S(=O)(=O)N[C@@H](C)C(F)(F)F)cn1)n2-c1ccc(F)c(F)c1 [compound 1061, 6-[3-cyano-1-(3,4-difluorophenyl)-6-ethyl-5-fluoro-1H-indol-2-yl]-N-[(2S)-1,1,1-trifluoropropan-2-yl]pyridine-3-sulfonamide]	229 to 235	< 500
Cc1ccc2c(c1)c(C#N)c(-c1ccc(S(=O)(=O)NC3(C(F)(F)F)CC3)cn1)n2C1CCC1 [compound 328, 6-(3-cyano-1-cyclobutyl-5-methyl-1H-indol-2-yl)-N-[1-(trifluoromethyl)cyclopropyl]pyridine-3-sulfonamide]	193 to 199	< 500
C[C@H](C1CC1)n1c(-c2ccc(NS(=O)(=O)C(C)(C)C)nc2)c(C(N)=O)c2cc(F)c(OC(F)F)cc21 [compound 1085, 2-{6-[(tert-butylsulfonyl)amino]pyridin-3-yl}-1-[(1R)-1-cyclopropylethyl]-6-(difluoromethoxy)-5-fluoro-1H-indole-3-carboxamide]	228 to 230	< 500
